Assay results from US12383545B1, “Treatment of migraine” (priority 2018, dated 2025).

Columns and labels:
ALT or AST = assay: Example 5: postbaseline hepatic laboratory parameter values of clinical interest; assay type: in vivo, human; details: Atogepant 60 mg QD (N = 186), safety population
Description: In a multicenter, randomized, double-blind, placebo-controlled, parallel-group study designed to evaluate the efficacy, safety, and tolerability of multiple doses and doses regimens of atogepant for the prevention of migraine. The patients were randomized (2:1:2:1:2:1) to 1 of 6 treatment groups: placebo, atogepant 10 mg QD, atogepant 30 mg QD, atogepant 30 mg BID, atogepant 60 mg QD, and atogepant 60 mg BID.
(§1) A total of 834 patients were randomized to double-blind treatment (ITT population), and 825 patients took at least 1 dose of double-blind IP (safety population). […] The primary efficacy variable was the change from baseline in mean monthly migraine/probable migraine headache days across the 12-week treatment period. The secondary efficacy variables were the change from baseline in mean monthly headache days across the 12-week treatment period, proportion of patients with at least a 50% reduction in mean monthly migraine/probable migraine headache days across the 12-week treatment period, and the change from baseline in mean monthly acute medication use days across the 12-week treatment period.

[1] = human, in vivo
Description: Data was also evaluated from Study C (described in Example 3) and Study D, a Phase 2b/3 clinical trial evaluating the efficacy, safety, and tolerability of orally administered atogepant. In Study D, after a 28 day baseline period, a total of 652 patients were randomized 1:2:2:2 to receive either atogepant 10 mg (n=94), atogepant 30 mg (n=185), atogepant 60 mg (n=187) or placebo (n=186).
The proportion of patients with weight decrease ≥7% at any point was 2.8% for placebo, 3.8% for atogepant 10 mg, 3.2% for atogepant 30 mg, and 4.9% for atogepant 60 mg. No patients in either study discontinued atogepant due to decreased weight.

Alkaline Phosphatase = assay: Example 5: postbaseline hepatic laboratory parameter values of clinical interest, Alkaline Phosphatase; assay type: in vivo, human; details: safety population
Description: This study consisted of a 4-week screening and baseline period and a 12-week double-blind treatment period, which was followed by a 4-week safety follow-up period. Total study duration is 20-weeks.
To be randomized, eligible patients had to be 18 to 75 years of age (inclusive), have a history of migraine with or without aura for at least 1 year consistent with a diagnosis according to the International Classification of Headache Disorders criteria, 3rd edition, beta version, have experienced 4 to 14 migraine/probable migraine headache days and <15 headache days in the 28-day baseline period. Patients who had clinically significant hematologic, endocrine, cardiovascular, cerebrovascular, pulmonary, renal, hepatic, gastrointestinal, or neurologic disease were excluded from the study.
as §1

## C[C@@H]1[C@H](c2c(F)ccc(F)c2F)C[C@H](NC(=O)c2cnc3c(c2)C[C@@]2(C3)C(=O)Nc3ncccc32)C(=O)N1CC(F)(F)F [atogepant]
ALT or AST
  Participants with postbaseline ALT or AST (U/L) >=1 * ULN, n/N1: 25/181
  Participants with postbaseline ALT or AST (U/L) >=1.5 * ULN, (%): (4.4) %
  Participants with postbaseline ALT or AST (U/L) >=1.5 * ULN, n/N1: 8/181
  Participants with postbaseline ALT or AST (U/L) >=2 * ULN, (%): (2.8) %
  Participants with postbaseline ALT or AST (U/L) >=2 * ULN, n/N1: 5/181
  Participants with postbaseline ALT or AST (U/L) >=3 * ULN, (%): (1.7) %
  Participants with postbaseline ALT or AST (U/L) >=3 * ULN, n/N1: 3/181
  Participants with postbaseline ALT or AST (U/L) >=5 * ULN, (%): (0.6) %
  Participants with postbaseline ALT or AST (U/L) >=5 * ULN, n/N1: 1/181
  Participants with postbaseline ALT or AST (U/L) >=10 * ULN, n/N1: 0
  Participants with postbaseline ALT or AST (U/L) >=20 * ULN, n/N1: 0
ALT or AST; same day
  Participants with Concurrent Elevations ALT or AST >=3 * ULN AND Bilirubin Total >=1.5 * ULN, n/N1: 0
  Participants with Concurrent Elevations ALT or AST >=3 * ULN AND Bilirubin Total >=2 * ULN, n/N1: 0
  Participants with Potential Hy's Law ALT or AST >=3 * ULN AND Bilirubin Total >=2 * ULN AND ALP <2 * ULN, n/N1: 0
[1]
  TEAE Weight decreased: 5 (0.4%) n (%)
Alkaline Phosphatase; Atogepant 10 mg QD (N = 93)
  Participants with postbaseline Alkaline Phosphatase (U/L) >=1 * ULN, (%): (5.4) %
  Participants with postbaseline Alkaline Phosphatase (U/L) >=1 * ULN, n/N1: 5/92
  Participants with postbaseline Alkaline Phosphatase (U/L) >=1.5 * ULN, (%): (1.1) %
  Participants with postbaseline Alkaline Phosphatase (U/L) >=1.5 * ULN, n/N1: 1/92
  Participants with postbaseline Alkaline Phosphatase (U/L) >=2 * ULN, (%): (1.1) %
  Participants with postbaseline Alkaline Phosphatase (U/L) >=2 * ULN, n/N1: 1/92
  Participants with postbaseline Alkaline Phosphatase (U/L) >=3 * ULN, n/N1: 0
  Participants with postbaseline Alkaline Phosphatase (U/L) >=5 * ULN, n/N1: 0
  Participants with postbaseline Alkaline Phosphatase (U/L) >=10 * ULN, n/N1: 0
  Participants with postbaseline Alkaline Phosphatase (U/L) >=20 * ULN, n/N1: 0
Alkaline Phosphatase; Atogepant 30 mg BID (N = 86)
  Participants with postbaseline Alkaline Phosphatase (U/L) >=1 * ULN, (%): (2.4) %
  Participants with postbaseline Alkaline Phosphatase (U/L) >=1 * ULN, n/N1: 2/84
  Participants with postbaseline Alkaline Phosphatase (U/L) >=1.5 * ULN, n/N1: 0
  Participants with postbaseline Alkaline Phosphatase (U/L) >=2 * ULN, n/N1: 0
  Participants with postbaseline Alkaline Phosphatase (U/L) >=3 * ULN, n/N1: 0
  Participants with postbaseline Alkaline Phosphatase (U/L) >=5 * ULN, n/N1: 0
  Participants with postbaseline Alkaline Phosphatase (U/L) >=10 * ULN, n/N1: 0
  Participants with postbaseline Alkaline Phosphatase (U/L) >=20 * ULN, n/N1: 0
Alkaline Phosphatase; Atogepant 30 mg QD (N = 183)
  Participants with postbaseline Alkaline Phosphatase (U/L) >=1 * ULN, (%): (10.6) %
  Participants with postbaseline Alkaline Phosphatase (U/L) >=1 * ULN, n/N1: 19/179
  Participants with postbaseline Alkaline Phosphatase (U/L) >=1.5 * ULN, (%): (0.6) %
  Participants with postbaseline Alkaline Phosphatase (U/L) >=1.5 * ULN, n/N1: 1/179
  Participants with postbaseline Alkaline Phosphatase (U/L) >=2 * ULN, n/N1: 0
  Participants with postbaseline Alkaline Phosphatase (U/L) >=3 * ULN, n/N1: 0
  Participants with postbaseline Alkaline Phosphatase (U/L) >=5 * ULN, n/N1: 0
  Participants with postbaseline Alkaline Phosphatase (U/L) >=10 * ULN, n/N1: 0
  Participants with postbaseline Alkaline Phosphatase (U/L) >=20 * ULN, n/N1: 0
Alkaline Phosphatase; Atogepant 60 mg BID (N = 91)
  Participants with postbaseline Alkaline Phosphatase (U/L) >=1 * ULN, (%): (3.4) %
  Participants with postbaseline Alkaline Phosphatase (U/L) >=1 * ULN, n/N1: 3/88
  Participants with postbaseline Alkaline Phosphatase (U/L) >=1.5 * ULN, n/N1: 0
  Participants with postbaseline Alkaline Phosphatase (U/L) >=2 * ULN, n/N1: 0
  Participants with postbaseline Alkaline Phosphatase (U/L) >=3 * ULN, n/N1: 0
  Participants with postbaseline Alkaline Phosphatase (U/L) >=5 * ULN, n/N1: 0
  Participants with postbaseline Alkaline Phosphatase (U/L) >=10 * ULN, n/N1: 0
  Participants with postbaseline Alkaline Phosphatase (U/L) >=20 * ULN, n/N1: 0
Alkaline Phosphatase; Atogepant 60 mg QD (N = 186)
  Participants with postbaseline Alkaline Phosphatase (U/L) >=1 * ULN, (%): (6.6) %
  Participants with postbaseline Alkaline Phosphatase (U/L) >=1 * ULN, n/N1: 12/181
  Participants with postbaseline Alkaline Phosphatase (U/L) >=1.5 * ULN, n/N1: 0
  Participants with postbaseline Alkaline Phosphatase (U/L) >=2 * ULN, n/N1: 0
  Participants with postbaseline Alkaline Phosphatase (U/L) >=3 * ULN, n/N1: 0
  Participants with postbaseline Alkaline Phosphatase (U/L) >=5 * ULN, n/N1: 0
  Participants with postbaseline Alkaline Phosphatase (U/L) >=10 * ULN, n/N1: 0
  Participants with postbaseline Alkaline Phosphatase (U/L) >=20 * ULN, n/N1: 0
